The target of one data set is 2C19 (Homo sapiens (Human), UniProt P33261). Put plainly: Direct inhibition test (DI test), CYP 2C19. It is filed as in vitro ADME. The note with it: human liver microsomes 0.2 mg/ml, 20 min. The method, then:
The system which was 100 μl of human liver microsomes (final concentration: 0.2 mg/ml) was used for direct inhibition incubation. The system contained NADPH (final concentration: 1 mM), 10 μl compound, positive inhibitor cocktail (ketoconazole, 10 μl, quinidine 10 μl, sulfaphenazole 100 μl, naphthoflavone 10 μl, tranylcypromine 1000 μl), negative control 10 μl DMSO and mixed probe substrate (midazolam 10 μl, testosterone 100 μl, dextromethorphan 10 μl, diclofenac 20 μl, phenacetin 100 μl, mephenytoin 100 μl). The reaction was stopped after the system was incubated for 20 min. The relative activity of the enzyme was calculated by measuring the relative amount of production of the metabolite.
Background: Liver microsomes are vesicles of endoplasmic reticulum, rich in cytochrome P450 enzymes.

Data set [1] relates to MM.1S nude mice xenografts. Put plainly: Growth of MM.1S nude mice xenografts in vivo. Also noted: species or system Balb/C nude mice. The note with it: for TV (mm^3, mean) d0: d0 (at start of administration). The protocol:
Balb/C nude mice (6 weeks, female, Beijing Huafukang Biotechnology Co., Ltd.) were purchased, and the animals were conditioned for about one week before the test. MM.1S cells were cultured in vitro, and the cells in logarithmic growth phase were resuspended in serum-free RPMI1640 medium to adjust the cell concentration. The cell suspension was subcutaneously injected into forefoot armpit of the Balb/C nude mice with a syringe, and each animal was injected with 150 μL (8.0×10^6/mouse). When the average tumor volume grew to about ˜150 mm^3, the animals were divided into 4 groups containing solvent control group, 50 mg/kg OTX-015 group, and 20 and 50 mg/kg compound 6 groups by the randomized block method and each group contained six animals. […] During the administration period, the tumor diameter was measured twice a week, the body weight of the animals was weighed, the living state of the animals was observed, and abnormal conditions were recorded.
The formula for calculating tumor volume (TV): TV=½×a×b^2, where a and b represent length and width, respectively.
The relative tumor volume (RTV) was calculated based on the measured results, and the calculation formula was: RTV=Vt/V0. Wherein V0 was the measured tumor volume at the time of administration by cage (ie, d0), and Vt was the tumor volume at each measurement.
The relative tumor proliferation rate T/C (%) was calculated based on the measured results, and the calculation formula was as follows: T/C (%)=(TRTV/CRTV)×100%, TRTV: treatment group RTV; CRTV: negative control group RTV.

Sequence of 2C19 (P33261 whole entry): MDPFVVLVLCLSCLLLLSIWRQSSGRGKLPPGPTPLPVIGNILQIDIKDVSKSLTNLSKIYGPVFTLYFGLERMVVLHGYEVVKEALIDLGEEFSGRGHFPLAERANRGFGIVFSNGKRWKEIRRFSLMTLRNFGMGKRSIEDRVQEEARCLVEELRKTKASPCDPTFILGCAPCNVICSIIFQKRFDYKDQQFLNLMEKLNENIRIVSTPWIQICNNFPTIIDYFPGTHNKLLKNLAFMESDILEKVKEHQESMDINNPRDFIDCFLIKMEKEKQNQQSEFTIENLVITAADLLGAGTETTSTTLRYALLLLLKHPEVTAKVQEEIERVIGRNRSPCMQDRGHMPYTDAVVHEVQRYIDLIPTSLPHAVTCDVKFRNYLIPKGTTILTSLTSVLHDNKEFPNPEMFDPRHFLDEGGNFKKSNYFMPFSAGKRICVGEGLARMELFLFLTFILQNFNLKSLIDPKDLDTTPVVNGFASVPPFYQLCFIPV

For the compound `Cc1ccc(-n2nc(C(=O)N3C[C@@H](C)N[C@@H](C)C3)nc2-c2ccc3c(c2)N(C2CCCC2)[C@H](C)C(=O)N3C)cc1` [Example 12], on 2C19, the “Direct inhibition rate (%) 2C19” value amounted to 12%.
In the case of `Cc1ccc(-n2nc(C(=O)N3CCN(C)CC3)nc2-c2ccc3c(c2)N(C2CCCC2)[C@H](C)C(=O)N3C)cc1` [Example 6], in data set [1] (20 mg/kg qd/14 po), the “RTV (mean SD)” value was determined as 584.14; the “T/C (%)” value stood at 48.32%; the “TV (mm^3, mean) d0” value is recorded as 184.28 mm^3; the “TV (mm^3, mean) d14” value came to 1024.45 mm^3. For the same compound, in data set [1] (50 mg/kg qd/14 po), the “RTV (mean SD)” value is reported as 417.16; the “T/C (%)” value is 34.51%; the “TV (mm^3, mean) d0” value was determined as 185.34 mm^3; the “TV (mm^3, mean) d14” value worked out at 660.39 mm^3. Also, in data set [1] (oral administration of 50 mg/kg per day), the “inhibitory effect on the growth of MM.1S nude mice xenografts (in words)” value is “significant inhibitory effect”.

(Values after patent US11078188B2, “Dihydroquinoxaline bromodomain recognition protein inhibitor, preparation method and use thereof” (SHANGHAI INSTITUTE OF MATERIA MEDICA, CHINESE ACADEMY OF …, priority 2017, dated 2021).)
